# Data taken from ChEMBL document CHEMBL3098090, “Cytotoxic activity of gypenosides and gynogenin against non-small cell lung carcinoma A549 cells” (Bioorg Med Chem Lett, 2014).
# System: A549
# Assay: Cytotoxicity against human A549 cells after 48 hrs by MTT assay
# Assay type: functional, cell-based
# Details: A549, 48 h
row,Compound,IC50 [µg/mL]
1,CC(C)=CCC[C@](C)(O[C@@H]1O[C@H](CO)[C@@H](O)[C@H](O)[C@H]1O)[C@H]1CC[C@]2(C)[C@@H]1[C@H](O)C[C@@H]1[C@@]3(C)C[C@@H](O)[C@H](O[C@@H]4O[C@H](CO)[C@@H](O)[C@H](O)[C@H]4O[C@@H]4O[C@H](CO)[C@@H](O)[C@H](O)[C@H]4O)C(C)(C)[C@@H]3CC[C@]12C,52.6
2,CC(C)=CCC[C@](C)(O[C@@H]1O[C@H](CO[C@@H]2OC[C@@H](O)[C@H](O)[C@H]2O)[C@@H](O)[C@H](O)[C@H]1O)[C@H]1CC[C@]2(C)[C@@H]1[C@H](O)C[C@@H]1[C@@]3(C)C[C@@H](O)[C@H](O[C@@H]4O[C@H](CO)[C@@H](O)[C@H](O)[C@H]4O[C@@H]4O[C@H](CO)[C@@H](O)[C@H](O)[C@H]4O)C(C)(C)[C@@H]3CC[C@]12C,106
3,CC(C)=CCC[C@](C)(O)[C@H]1CC[C@]2(C)[C@@H]1[C@H](O)C[C@@H]1[C@@]3(C)C[C@@H](O)[C@H](O[C@@H]4O[C@H](CO)[C@@H](O)[C@H](O)[C@H]4O[C@@H]4O[C@H](CO)[C@@H](O)[C@H](O)[C@H]4O)C(C)(C)[C@@H]3CC[C@]12C,34.9
4,CC(C)=CCC[C@@](C)(O)[C@H]1CC[C@]2(C)[C@@H]1[C@H](O)C[C@@H]1[C@@]3(C)C[C@@H](O)[C@H](O[C@@H]4O[C@H](CO)[C@@H](O)[C@H](O)[C@H]4O[C@@H]4O[C@H](CO)[C@@H](O)[C@H](O)[C@H]4O)C(C)(C)[C@@H]3CC[C@]12C,51
5,CC(C)=CCC[C@](C)(O)[C@H]1CC[C@]2(C)[C@@H]1[C@H](O)C[C@@H]1[C@@]3(C)C[C@@H](O)[C@H](O)C(C)(C)[C@@H]3CC[C@]12C,12.5
6,CC(C)=CCC[C@](C)(O)[C@H]1CC[C@]2(C)[C@@H]1[C@H](O)C[C@@H]1[C@@]3(C)CC[C@H](O[C@@H]4O[C@H](CO)[C@@H](O)[C@H](O)[C@H]4O[C@@H]4O[C@H](CO)[C@@H](O)[C@H](O)[C@H]4O)C(C)(C)[C@@H]3CC[C@]12C,55.4
